Data set [1] is described as follows: Aqueous Solubility (PBS, pH 7.4). Conditions: pH 7.4, 2.0E−04 M; for solubility: pH 7.4, PBS. The data set is classed as physicochemical.
The target of the next data set is hERG (Homo sapiens, UniProt Q12809). Put plainly: hERG Inhibition (Table 6E). Also noted: expressed in transfected cells; unit not given here. Format: cell-based. The protocol: Compound (II) was initially tested at 1 μM concentration using a standard patch clamp protocol (Cerep ADMET Study 13170). The hERG channel was expressed in a human embryonic kidney (HEK293) cell line that lacks endogenous hERG channels. […] We have retested compound (II) in hERG assay in a range of lower concentrations to estimate IC50 of hERG inhibition more precisely (Qpatch 16 automated whole-cell patch clamp protocol in CHO-K1 cell line stably expressing hERG, Cerep hERG Study 13292). […] This kind of potency in hERG inhibition should not represent a significant clinical problem since the high degree of hERG inhibition would occur only at the compound concentrations above the expected therapeutic levels.
Background: The hERG channel carries a current that helps repolarise heart muscle cells.

Each structure is given as a SMILES string. Values after ≈ are worked out from the molar mass of the structure shown. Where two headings read alike, the source gives them in different places.

Sequence of hERG (Q12809 whole entry): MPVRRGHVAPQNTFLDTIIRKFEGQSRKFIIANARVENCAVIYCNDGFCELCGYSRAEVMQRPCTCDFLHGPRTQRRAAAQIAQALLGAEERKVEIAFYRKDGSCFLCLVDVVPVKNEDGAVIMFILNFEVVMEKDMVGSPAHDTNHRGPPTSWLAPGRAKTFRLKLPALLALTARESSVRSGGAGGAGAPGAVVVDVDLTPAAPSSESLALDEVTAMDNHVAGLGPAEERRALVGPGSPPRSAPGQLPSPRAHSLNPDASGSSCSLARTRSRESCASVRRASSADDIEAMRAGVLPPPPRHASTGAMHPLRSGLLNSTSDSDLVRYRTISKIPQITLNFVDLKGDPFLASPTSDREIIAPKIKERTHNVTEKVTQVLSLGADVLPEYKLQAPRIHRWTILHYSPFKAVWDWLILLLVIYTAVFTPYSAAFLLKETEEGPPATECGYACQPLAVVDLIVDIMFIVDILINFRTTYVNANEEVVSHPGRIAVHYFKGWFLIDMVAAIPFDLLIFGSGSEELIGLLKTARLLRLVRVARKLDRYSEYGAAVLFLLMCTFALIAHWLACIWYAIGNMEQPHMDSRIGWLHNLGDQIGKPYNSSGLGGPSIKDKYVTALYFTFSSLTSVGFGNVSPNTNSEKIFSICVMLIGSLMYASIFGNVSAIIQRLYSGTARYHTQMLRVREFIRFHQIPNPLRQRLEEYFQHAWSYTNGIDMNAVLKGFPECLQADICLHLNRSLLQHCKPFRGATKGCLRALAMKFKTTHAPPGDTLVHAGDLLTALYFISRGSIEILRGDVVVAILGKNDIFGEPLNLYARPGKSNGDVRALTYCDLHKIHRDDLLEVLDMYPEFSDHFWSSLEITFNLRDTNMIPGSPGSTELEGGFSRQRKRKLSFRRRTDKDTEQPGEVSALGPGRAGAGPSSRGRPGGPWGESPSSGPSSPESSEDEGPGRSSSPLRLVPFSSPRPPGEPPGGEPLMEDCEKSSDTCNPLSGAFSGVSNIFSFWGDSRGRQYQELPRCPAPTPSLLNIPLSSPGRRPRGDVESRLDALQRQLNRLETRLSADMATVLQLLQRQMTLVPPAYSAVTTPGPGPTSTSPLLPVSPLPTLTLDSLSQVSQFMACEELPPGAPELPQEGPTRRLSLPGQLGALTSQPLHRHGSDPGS

In the case of `O=C1NC(=O)C(c2ccccc2)(c2ccccc2)N1` [Phenytoin], the “Solubility 1st/2nd” value in data set [1] (individual data) was 86.44 μm. In addition, the solubility in data set [1] (Tables 9C, 9D, read-out: Solubility Mean) was found to be 87 µM (≈ 21.9 µg/mL); in data set [1] (individual data, read-out: Solubility 1st/2nd) it was 87.7 µM (≈ 22.1 µg/mL).

For the compound `Cc1ccc(F)cc1C[C@H](C)Nc1cc[nH]c(=O)c1-c1nc2cc3c(cc2[nH]1)C(=O)N(CCN1CCCC1)C3` [drawing 364], the “hERG Inhibition” value at hERG (25) turned out to be 22.5; at hERG (100) it was 28; at hERG (1000) it was 50.4; on hERG (column head 500), 38.5.

As for `Cc1ccc(F)cc1C[C@H](C)Nc1cc[nH]c(=O)c1-c1nc2cc3c(cc2[nH]1)CN(CCN(C)C)C3=O` [drawing 365], the “hERG Inhibition” value on hERG (25) is recorded as 5.8; at hERG (100) it was 8.8; on hERG (1000) it was 6.8; on hERG (column head 500), 11.1; at hERG (column head 3000) it was 27.1; on hERG (column head 5000), 50.0.

Consider `C[C@@H](Cc1cc(F)cc(F)c1F)Nc1cc[nH]c(=O)c1-c1nc2cc3c(cc2[nH]1)CN(CCN1CCCC1)C3=O` [drawing 366], for which the “hERG Inhibition” value at hERG (25) was 6.00; on hERG (100), 9.7; on hERG (1000), 7.30; at hERG (column head 500), 7.10; on hERG (column head 3000), 33.20; on hERG (column head 5000), 57.80.

In the case of `C[C@@H](Cc1cc(F)cc(F)c1F)Nc1cc[nH]c(=O)c1-c1nc2cc3c(cc2[nH]1)CN(CCN(C)C)C3=O` [drawing 367], the “hERG Inhibition” value is 6.60 at hERG (25), 10.20 at hERG (100) and 13.10 at hERG (column head 500).
